# Experimental data as given in patent publication US20250340552A1, “COMPOUNDS, COMPOSITIONS AND METHODS OF TREATING DISORDERS” (HOTSPOT THERAPEUTICS, INC., priority 2022, published 2025).
# Target: T1, Cbl-B (Homo sapiens, UniProt Q13191)
# T1 construct: MSD-Based Assay for Degradation of Cbl-B in THP-1 Cells; endogenous in cells; host or cells: THP-1 (title) / Jurkat (protocol text)
# Test: MSD-based assay for degradation of Cbl-B in THP-1 cells
# Type: cell-based
# Settings: Cbl-B degradation, Jurkat cells seeded (heading: THP-1 cells), 24 hours incubation, MSD readout; for Dmax: read-out: Dmax
# Outline: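 Reported Dmax bins are A >70%, B 50–70%, C 30–50% and D <30%, from an electrochemiluminescence (MSD) sandwich assay of Cbl-B in cell lysates. THP-1 cells were exposed to compounds for 24 hours before lysis.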
# T1 sequence (Q13191 whole entry): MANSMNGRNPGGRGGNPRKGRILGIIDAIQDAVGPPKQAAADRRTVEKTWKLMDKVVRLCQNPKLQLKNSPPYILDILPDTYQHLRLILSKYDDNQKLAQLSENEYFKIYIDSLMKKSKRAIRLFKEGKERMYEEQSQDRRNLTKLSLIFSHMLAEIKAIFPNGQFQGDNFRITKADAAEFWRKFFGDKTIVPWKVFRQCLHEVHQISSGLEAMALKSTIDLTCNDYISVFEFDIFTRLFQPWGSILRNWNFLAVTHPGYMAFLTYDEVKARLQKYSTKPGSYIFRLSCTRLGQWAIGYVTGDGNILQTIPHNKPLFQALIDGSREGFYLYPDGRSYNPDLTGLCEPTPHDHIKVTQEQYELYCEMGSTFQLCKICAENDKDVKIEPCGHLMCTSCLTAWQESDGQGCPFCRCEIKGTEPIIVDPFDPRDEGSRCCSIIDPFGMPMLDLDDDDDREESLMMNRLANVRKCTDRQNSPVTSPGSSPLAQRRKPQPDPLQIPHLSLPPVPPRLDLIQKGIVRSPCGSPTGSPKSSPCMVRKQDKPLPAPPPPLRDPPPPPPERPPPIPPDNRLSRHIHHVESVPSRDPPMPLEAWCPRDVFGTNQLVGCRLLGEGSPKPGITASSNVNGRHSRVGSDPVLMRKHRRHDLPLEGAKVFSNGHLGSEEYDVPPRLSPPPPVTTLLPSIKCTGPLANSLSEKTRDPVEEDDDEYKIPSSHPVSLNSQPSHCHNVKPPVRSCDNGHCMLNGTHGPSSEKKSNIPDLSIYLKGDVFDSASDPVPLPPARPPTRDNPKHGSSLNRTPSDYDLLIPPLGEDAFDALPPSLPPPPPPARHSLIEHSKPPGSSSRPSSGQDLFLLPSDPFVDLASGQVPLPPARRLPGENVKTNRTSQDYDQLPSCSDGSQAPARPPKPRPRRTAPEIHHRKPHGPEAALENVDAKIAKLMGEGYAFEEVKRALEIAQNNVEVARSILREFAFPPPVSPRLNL
smiles,measurement,value
"Cn1cnnc1[C@@H](c1cccc(-n2cc3c(C(F)(F)F)cc(CN4CCC(CC(=O)N5CCC(C6CCN(c7ccc8c(c7)CN([C@@H]7CCC(=O)NC7=O)C8=O)CC6)CC5)CC4)cn3c2=O)c1)C1CCC1 (single isomer, unassigned) [Compound 177]",DC50,300 to 1000 nM
same,Dmax,30 to 50%
"Cn1cnnc1[C@@H](c1cccc(-n2cc3c(C(F)(F)F)cc(CN4CCC(CC(=O)N5CCC(C6CCN(c7ccc8c(c7)CN([C@H]7CCC(=O)NC7=O)C8=O)CC6)CC5)CC4)cn3c2=O)c1)C1CCC1 (single isomer, unassigned) [Compound 178]",DC50,< 30 nM
same,Dmax,> 70%
"CN(CCC1CCN(Cc2cc(C(F)(F)F)c3cn(-c4cccc([C@H](c5nncn5C)C5CCC5)c4)c(=O)n3c2)CC1)C(=O)c1ccc(N2CCN(c3ccc4c(c3)CN([C@@H]3CCC(=O)NC3=O)C4=O)CC2)cc1 (single isomer, unassigned) [Compound 185]",DC50,30 to 300 nM
same,Dmax,50 to 70%
"CN(CCC1CCN(Cc2cc(C(F)(F)F)c3cn(-c4cccc([C@H](c5nncn5C)C5CCC5)c4)c(=O)n3c2)CC1)C(=O)c1ccc(N2CCN(c3ccc4c(c3)CN([C@H]3CCC(=O)NC3=O)C4=O)CC2)cc1 (single isomer, unassigned) [Compound 186]",DC50,< 30 nM
same,Dmax,> 70%
"Cn1cnnc1[C@@H](c1cccc(-n2cc3c(C(F)(F)F)cc(CN4CCC[C@H](OCc5ccc(CC6CCN(c7ccc8c(c7)CN([C@@H]7CCC(=O)NC7=O)C8=O)CC6)cc5)C4)cn3c2=O)c1)C1CCC1 (single isomer, unassigned) [Compound 187]",DC50,> 10000 nM
"Cn1cnnc1[C@@H](c1cccc(-n2cc3c(C(F)(F)F)cc(CN4CCC[C@H](OCc5ccc(CC6CCN(c7ccc8c(c7)CN([C@H]7CCC(=O)NC7=O)C8=O)CC6)cc5)C4)cn3c2=O)c1)C1CCC1 (single isomer, unassigned) [Compound 188]",DC50,300 to 1000 nM
"Cn1cnnc1[C@@H](c1cccc(N2Cc3c(cc(CN4CCC[C@H](OCc5ccc(CC6CCN(c7ccc8c(c7)CN([C@@H]7CCC(=O)NC7=O)C8=O)CC6)cc5)C4)cc3C(F)(F)F)C2=O)c1)C1CCC1 (single isomer, unassigned) [Compound 189]",DC50,> 10000 nM
same,Dmax,< 30%
"Cn1cnnc1[C@@H](c1cccc(-n2cc3c(C(F)(F)F)cc(CN4CCC[C@@H](OCc5ccc(CC6CCN(c7ccc8c(c7)CN([C@H]7CCC(=O)NC7=O)C8=O)CC6)cc5)C4)cn3c2=O)c1)C1CCC1 (single isomer, unassigned) [Compound 192]",DC50,1000 to 10000 nM
"Cn1cnnc1[C@@H](c1cccc(N2Cc3c(cc(CN4CCC[C@@H](OCc5ccc(CC6CCN(c7ccc8c(c7)CN([C@@H]7CCC(=O)NC7=O)C8=O)CC6)cc5)C4)cc3C(F)(F)F)C2=O)c1)C1CCC1 (single isomer, unassigned) [Compound 193]",DC50,> 10000 nM
same,Dmax,< 30%
"Cn1cnnc1[C@@H](c1cccc(N2Cc3c(cc(CN4CCC[C@@H](OCc5ccc(CC6CCN(c7ccc8c(c7)CN([C@H]7CCC(=O)NC7=O)C8=O)CC6)cc5)C4)cc3C(F)(F)F)C2=O)c1)C1CCC1 (single isomer, unassigned) [Compound 194]",DC50,30 to 300 nM
same,Dmax,30 to 50%
"Cn1cnnc1[C@@H](c1cccc(-n2cc3c(C(F)(F)F)cc(CN4CCC[C@H](OC5CCN(C(=O)c6ccc(N7CCN(c8ccc9c(c8)CN([C@@H]8CCC(=O)NC8=O)C9=O)CC7)cc6)CC5)C4)cn3c2=O)c1)C1CCC1 (single isomer, unassigned) [Compound 195]",DC50,30 to 300 nM
same,Dmax,50 to 70%
"Cn1cnnc1[C@@H](c1cccc(-n2cc3c(C(F)(F)F)cc(CN4CCC[C@H](OC5CCN(C(=O)c6ccc(N7CCN(c8ccc9c(c8)CN([C@H]8CCC(=O)NC8=O)C9=O)CC7)cc6)CC5)C4)cn3c2=O)c1)C1CCC1 (single isomer, unassigned) [Compound 196]",DC50,< 30 nM
same,Dmax,> 70%
"CN(CCN(C)C(=O)c1cc(C(F)(F)F)c2cn(-c3cccc([C@H](c4nncn4C)C4CCC4)c3)c(=O)n2c1)C(=O)c1ccc(C2CCN(c3ccc4c(c3)CN([C@@H]3CCC(=O)NC3=O)C4=O)CC2)cc1 (single isomer, unassigned) [Compound 197]",DC50,> 10000 nM
same,Dmax,< 30%
"CN(CCN(C)C(=O)c1cc(C(F)(F)F)c2cn(-c3cccc([C@H](c4nncn4C)C4CCC4)c3)c(=O)n2c1)C(=O)c1ccc(C2CCN(c3ccc4c(c3)CN([C@H]3CCC(=O)NC3=O)C4=O)CC2)cc1 (single isomer, unassigned) [Compound 198]",DC50,> 10000 nM
same,Dmax,< 30%
"CN(CC1CCN(Cc2cc(C(F)(F)F)c3cn(-c4cccc([C@H](c5nncn5C)C5CCC5)c4)c(=O)n3c2)CC1)C(=O)c1ccc(C2CCN(c3ccc4c(c3)CN([C@@H]3CCC(=O)NC3=O)C4=O)CC2)cc1 (single isomer, unassigned) [Compound 199]",DC50,30 to 300 nM
same,Dmax,30 to 50%
"CN(CC1CCN(Cc2cc(C(F)(F)F)c3cn(-c4cccc([C@H](c5nncn5C)C5CCC5)c4)c(=O)n3c2)CC1)C(=O)c1ccc(C2CCN(c3ccc4c(c3)CN([C@H]3CCC(=O)NC3=O)C4=O)CC2)cc1 (single isomer, unassigned) [Compound 200]",DC50,< 30 nM
same,Dmax,> 70%
"Cn1cnnc1[C@@H](c1cccc(-n2cc3c(C(F)(F)F)cc(CN4CCN(C(=O)Cc5ccc(C6CCN(c7ccc8c(c7)CN([C@@H]7CCC(=O)NC7=O)C8=O)CC6)cc5)CC4)cn3c2=O)c1)C1CCC1 (single isomer, unassigned) [Compound 201]",DC50,30 to 300 nM
same,Dmax,30 to 50%
"Cn1cnnc1[C@@H](c1cccc(-n2cc3c(C(F)(F)F)cc(CN4CCN(C(=O)Cc5ccc(C6CCN(c7ccc8c(c7)CN([C@H]7CCC(=O)NC7=O)C8=O)CC6)cc5)CC4)cn3c2=O)c1)C1CCC1 (single isomer, unassigned) [Compound 202]",DC50,< 30 nM
same,Dmax,> 70%
"Cn1cnnc1CC1(c2cccc(-n3cc4c(C(F)(F)F)cc(CN5CCC(OCc6ccc(C7CCN(c8ccc9c(c8)CN([C@@H]8CCC(=O)NC8=O)C9=O)CC7)cc6)CC5)cn4c3=O)c2)COC1 (single isomer, unassigned) [Compound 205]",DC50,30 to 300 nM
same,Dmax,30 to 50%
"Cn1cnnc1CC1(c2cccc(-n3cc4c(C(F)(F)F)cc(CN5CCC(OCc6ccc(C7CCN(c8ccc9c(c8)CN([C@H]8CCC(=O)NC8=O)C9=O)CC7)cc6)CC5)cn4c3=O)c2)COC1 (single isomer, unassigned) [Compound 206]",DC50,30 to 300 nM
same,Dmax,50 to 70%
"Cn1cnnc1[C@@H](c1cccc(-n2cc3c(C(F)(F)F)cc(CN4CCC(OCc5cccc(CN6CCN(c7ccc8c(c7)CN([C@@H]7CCC(=O)NC7=O)C8=O)CC6)c5)CC4)cn3c2=O)c1)C1CCC1 (single isomer, unassigned) [Compound 207]",DC50,> 10000 nM
same,Dmax,< 30%
"Cn1cnnc1[C@@H](c1cccc(-n2cc3c(C(F)(F)F)cc(CN4CCC(OCc5cccc(CN6CCN(c7ccc8c(c7)CN([C@H]7CCC(=O)NC7=O)C8=O)CC6)c5)CC4)cn3c2=O)c1)C1CCC1 (single isomer, unassigned) [Compound 208]",DC50,> 10000 nM
same,Dmax,< 30%
"Cn1cnnc1[C@@H](c1cccc(-n2cc3c(C(F)(F)F)cc(CN4CCN(c5ccc(C(=O)N6CCC(C7CCN(c8ccc9c(c8)CN([C@@H]8CCC(=O)NC8=O)C9=O)CC7)CC6)cc5)CC4)cn3c2=O)c1)C1CCC1 (single isomer, unassigned) [Compound 209]",DC50,1000 to 10000 nM
same,Dmax,< 30%
